Species on record: Rattus norvegicus
Assay: DrugMatrix - Regimen: Daily Repeat
Type: toxicity, organism-based, Sprague-Dawley
Design: regimen Daily Repeat, gender Male, age 6-8 weeks
Details: in vivo, po, route oral GAVAGE, vehicle 100 % WATER; for ABSOLUTE BASOPHIL / ABSOLUTE EOSINOPHIL / ABSOLUTE LYMPHOCYTE / ABSOLUTE MONOCYTE / ABSOLUTE SEGMENTED NEUTROPHIL / BASOPHIL / EOSINOPHIL / ERYTHROCYTE COUNT / HEMATOCRIT / HEMOGLOBIN / LEUKOCYTE COUNT / LYMPHOCYTE / MEAN CORPUSCULAR HEMOGLOBIN / MEAN CORPUSCULAR HEMOGLOBIN CONCENTRATION / MEAN CORPUSCULAR VOLUME / MONOCYTE / NEUTROPHIL / NUCLEATED RED BLOOD CELLS / PLATELET COUNT: tissue Blood; for ALANINE AMINOTRANSFERASE / ALBUMIN / ALKALINE PHOSPHATASE / ASPARTATE AMINOTRANSFERASE / BLOOD UREA NITROGEN / CARBON DIOXIDE / CHLORIDE / CHOLESTEROL / CREATINE PHOSPHOKINASE / CREATININE / GLUCOSE / LACTATE DEHYDROGENASE / LIPASE / PHOSPHORUS / POTASSIUM / SODIUM / TOTAL BILIRUBIN / TOTAL PROTEIN / URIC ACID: tissue Plasma
[1] = 0 mg/kg, 72 h, dose level Control, time 3 day
[2] = 0 mg/kg, 120 h, dose level Control, time 5 day
[3] = 0.3 mg/kg, 72 h, dose level Low, time 3 day

In the case of `Clc1cccc(Cl)c1N=C1NCCN1` [CLONIDINE], the “ABSOLUTE BASOPHIL” value [1] is reported as 0 CELLS/uL, the “ABSOLUTE EOSINOPHIL” value [1] is reported as 24 CELLS/uL and the “ABSOLUTE LYMPHOCYTE” value [1] is reported as 13105 CELLS/uL. The “ABSOLUTE MONOCYTE” value [1] was 76 CELLS/uL, the “ABSOLUTE SEGMENTED NEUTROPHIL” value [1] was 2145 CELLS/uL and the BASOPHIL [1] was 0%. For the same compound, the EOSINOPHIL [1] was 0.17%, the “ERYTHROCYTE COUNT” value [1] was 5.81 x10E6/uL and the HEMATOCRIT [1] was 35.6%. The HEMOGLOBIN [1] was 13.72 G/DL, the “LEUKOCYTE COUNT” value [1] was 15.35 x10E3/uL and the LYMPHOCYTE [1] was 85.5%. For the same compound, the “MEAN CORPUSCULAR HEMOGLOBIN” value [1] was 23.62 pg, the “MEAN CORPUSCULAR HEMOGLOBIN CONCENTRATION” value [1] was 38.55 G/DL and the “MEAN CORPUSCULAR VOLUME” value [1] was 61.23 fL. The MONOCYTE [1] was 0.5%, the NEUTROPHIL [1] was 13.83% and the “NUCLEATED RED BLOOD CELLS” value [1] was 0 /100WBC. For the same compound, the “PLATELET COUNT” value [1] was 1189.83 x10E3/uL, the “ALANINE AMINOTRANSFERASE” value [1] was 48.67 u/L and the ALBUMIN [1] was 4.27 G/DL. The “ALKALINE PHOSPHATASE” value [1] was 335 u/L, the “ASPARTATE AMINOTRANSFERASE” value [1] was 86.5 u/L and the “BLOOD UREA NITROGEN” value [1] was 14.33 mg/dL. The “CARBON DIOXIDE” value [1] was 29.17 mmol/L, the CHLORIDE [1] was 99.83 MEQ/L and the CHOLESTEROL [1] was 71.83 mg/dL. The “CREATINE PHOSPHOKINASE” value [1] was 506.83 u/L, the CREATININE [1] was 0.18 mg/dL and the GLUCOSE [1] was 162.17 mg/dL. For the same compound, the “LACTATE DEHYDROGENASE” value [1] was 264.5 u/L, the LIPASE [1] was 9.67 u/L and the PHOSPHORUS [1] was 11.92 mg/dL. The POTASSIUM [1] was 6.55 MEQ/L, the SODIUM [1] was 141.53 MEQ/L and the “TOTAL BILIRUBIN” value [1] was 0.18 mg/dL. For the same compound, the “TOTAL PROTEIN” value [1] was 5.87 G/DL, the “URIC ACID” value [1] was 1.67 mg/dL and the “ABSOLUTE BASOPHIL” value [2] was 0 CELLS/uL. For the same compound, the “ABSOLUTE EOSINOPHIL” value [2] was 25.33 CELLS/uL, the “ABSOLUTE LYMPHOCYTE” value [2] was 15680 CELLS/uL and the “ABSOLUTE MONOCYTE” value [2] was 92.33 CELLS/uL. For the same compound, the “ABSOLUTE SEGMENTED NEUTROPHIL” value [2] was 2102.33 CELLS/uL, the BASOPHIL [2] was 0% and the EOSINOPHIL [2] was 0.17%. The “ERYTHROCYTE COUNT” value [2] was 6 x10E6/uL, the HEMATOCRIT [2] was 35.55% and the HEMOGLOBIN [2] was 14.12 G/DL. The “LEUKOCYTE COUNT” value [2] was 17.9 x10E3/uL, the LYMPHOCYTE [2] was 87.33% and the “MEAN CORPUSCULAR HEMOGLOBIN” value [2] was 23.65 pg. The “MEAN CORPUSCULAR HEMOGLOBIN CONCENTRATION” value [2] was 39.77 G/DL, the “MEAN CORPUSCULAR VOLUME” value [2] was 59.52 fL and the MONOCYTE [2] was 0.5%. For the same compound, the NEUTROPHIL [2] was 12%, the “NUCLEATED RED BLOOD CELLS” value [2] was 0.17 /100WBC and the “PLATELET COUNT” value [2] was 1325.67 x10E3/uL. For the same compound, the “ALANINE AMINOTRANSFERASE” value [2] was 56.17 u/L, the ALBUMIN [2] was 4.23 G/DL and the “ALKALINE PHOSPHATASE” value [2] was 371.5 u/L. The “ASPARTATE AMINOTRANSFERASE” value [2] was 91 u/L, the “BLOOD UREA NITROGEN” value [2] was 15.33 mg/dL and the “CARBON DIOXIDE” value [2] was 27.67 mmol/L. For the same compound, the CHLORIDE [2] was 99.5 MEQ/L, the CHOLESTEROL [2] was 66.5 mg/dL and the “CREATINE PHOSPHOKINASE” value [2] was 518.5 u/L. The CREATININE [2] was 0.18 mg/dL, the GLUCOSE [2] was 143.33 mg/dL and the “LACTATE DEHYDROGENASE” value [2] was 238.83 u/L. The LIPASE [2] was 9.33 u/L, the PHOSPHORUS [2] was 10.68 mg/dL and the POTASSIUM [2] was 6.5 MEQ/L. For the same compound, the SODIUM [2] was 141.88 MEQ/L, the “TOTAL BILIRUBIN” value [2] was 0.18 mg/dL and the “TOTAL PROTEIN” value [2] was 6 G/DL. For the same compound, the “URIC ACID” value [2] was 1.63 mg/dL, the “ABSOLUTE BASOPHIL” value [3] was 0 CELLS/uL and the “ABSOLUTE EOSINOPHIL” value [3] was 0 CELLS/uL. The “ABSOLUTE LYMPHOCYTE” value [3] was 15419.33 CELLS/uL, the “ABSOLUTE MONOCYTE” value [3] was 122.67 CELLS/uL and the “ABSOLUTE SEGMENTED NEUTROPHIL” value [3] was 2191.33 CELLS/uL. For the same compound, the BASOPHIL [3] was 0%, the EOSINOPHIL [3] was 0% and the “ERYTHROCYTE COUNT” value [3] was 5.84 x10E6/uL. For the same compound, the HEMATOCRIT [3] was 35.27%, the HEMOGLOBIN [3] was 13.6 G/DL and the “LEUKOCYTE COUNT” value [3] was 17.73 x10E3/uL. For the same compound, the LYMPHOCYTE [3] was 87%, the “MEAN CORPUSCULAR HEMOGLOBIN” value [3] was 23.23 pg and the “MEAN CORPUSCULAR HEMOGLOBIN CONCENTRATION” value [3] was 38.57 G/DL. For the same compound, the “MEAN CORPUSCULAR VOLUME” value [3] was 60.37 fL, the MONOCYTE [3] was 0.67% and the NEUTROPHIL [3] was 12.33%. For the same compound, the “NUCLEATED RED BLOOD CELLS” value [3] was 0 /100WBC, the “PLATELET COUNT” value [3] was 1290.67 x10E3/uL and the “ALANINE AMINOTRANSFERASE” value [3] was 45.33 u/L. For the same compound, the ALBUMIN [3] was 3.9 G/DL, the “ALKALINE PHOSPHATASE” value [3] was 319 u/L and the “ASPARTATE AMINOTRANSFERASE” value [3] was 93.67 u/L. For the same compound, the “BLOOD UREA NITROGEN” value [3] was 18.33 mg/dL, the “CARBON DIOXIDE” value [3] was 27.33 mmol/L and the CHLORIDE [3] was 101.67 MEQ/L. The CHOLESTEROL [3] was 75 mg/dL, the “CREATINE PHOSPHOKINASE” value [3] was 321.67 u/L and the CREATININE [3] was 0.19 mg/dL. For the same compound, the GLUCOSE [3] was 140.33 mg/dL, the “LACTATE DEHYDROGENASE” value [3] was 166 u/L and the LIPASE [3] was 9.67 u/L. For the same compound, the PHOSPHORUS [3] was 10.43 mg/dL, the POTASSIUM [3] was 6.56 MEQ/L and the SODIUM [3] was 141.9 MEQ/L. For the same compound, the “TOTAL BILIRUBIN” value [3] was 0.17 mg/dL, the “TOTAL PROTEIN” value [3] was 5.63 G/DL and the “URIC ACID” value [3] was 1.87 mg/dL.

From ChEMBL document CHEMBL3885881, “DrugMatrix”
